Values quoted from earlier work in patent US20190274971A1, “USE OF AMERICAN GINSENG TO […]-INDUCED INTOXICATION” (ENGEN MEDICAL CORPORATION, priority 2018, published 2019).

Target: CB1 receptor (Homo sapiens, UniProt P21554)
Conditions: literature statement (Leonti et al., Biochemical Pharmacology 79(12):1815-1826, 2010)

Chain of CB1 receptor (P21554 whole entry): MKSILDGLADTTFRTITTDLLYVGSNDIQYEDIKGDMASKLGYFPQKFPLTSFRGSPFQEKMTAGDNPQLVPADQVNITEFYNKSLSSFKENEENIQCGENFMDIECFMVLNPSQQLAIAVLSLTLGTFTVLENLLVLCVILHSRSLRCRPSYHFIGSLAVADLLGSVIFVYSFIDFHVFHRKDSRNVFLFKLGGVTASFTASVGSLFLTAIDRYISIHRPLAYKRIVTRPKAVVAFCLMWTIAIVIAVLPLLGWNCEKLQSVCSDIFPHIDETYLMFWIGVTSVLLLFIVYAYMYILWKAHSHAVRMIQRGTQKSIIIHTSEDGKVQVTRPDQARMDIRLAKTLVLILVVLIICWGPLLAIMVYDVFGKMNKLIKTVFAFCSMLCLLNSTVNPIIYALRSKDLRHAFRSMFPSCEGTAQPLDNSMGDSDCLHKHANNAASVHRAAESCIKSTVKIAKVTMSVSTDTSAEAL

For `C=C[C@H](O)C#CC#CC/C=C\CCCCCCC` [falcarinol], the “activity at the CB1 receptor” value is given as “potent inverse agonist”.
